Assay in all cases: NCI anticancer screen, dose series, 48 h
The test system of experiment [1] is HCT-116.
In experiment [2] the test system is NCI-H522.
Experiment [3] relates to CAKI-1.
The test system of experiment [4] is SF-295.
Experiment [5] has as its system IGROV-1.
Experiment [6] has as its system DU-145.
Experiment [7] deals with SK-OV-3.
Experiment [8] relates to LOX IMVI.
Experiment [9] has as its system T47D.
In experiment [10] the test system is SK-MEL-28.
Experiment [11] deals with A498.
Experiment [12] concerns MDA-MB-435.
Experiment [13] concerns SF-268.
Experiment [14] deals with KM12.
The subject of experiment [15] is NCI-H23.
In experiment [16] the test system is K562.
Experiment [17] deals with SN12C.
The subject of experiment [18] is MDA-N.
The subject of experiment [19] is COLO 205.
The test system of experiment [20] is SR.

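How tested: cells in 96-well plates exposed to compound for 48 hours at five concentrations. Here, GI50 denotes the concentration required for 50% inhibition of growth.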 Activity calls are given as the source filed them. Cut-off read from the data, not from the text of the source: active = GI50 up to about 1.1 µM and inactive = higher.

The record followed here is ChEMBL document CHEMBL1201862, “PubChem BioAssay data set” (2004).

For `Nc1c(OCC(=O)O)ccc2cc(S(=O)(=O)O)ccc12`, the GI50 in experiment [1], in experiment [2], in experiment [3], in experiment [4], in experiment [5] and in experiment [6] was > 100 µM (inactive) each time. Moreover, the GI50 in experiment [7], in experiment [8], in experiment [9], in [10], in [11] and in experiment [12] was > 100 µM (inactive) throughout. Besides, the GI50 in experiment [13], in [14], in experiment [15], in [16], in experiment [17] and in experiment [18] was > 100 µM (inactive) in each case. In addition, in [19], the GI50 was > 100 µM (inactive).
Consider `COc1cc(C2SC(=N)Nc3c2c(C)nn3C(=O)c2ccccc2O)ccc1O` (stereo unspecified), for which the GI50 is > 3.84 µM (inactive) in [2]; > 2.42 µM (inactive) in experiment [3]; 1.28 µM (inactive) in [4]; 1.61 µM (inactive) in experiment [5]; 1.69 µM (inactive) in experiment [6]; > 2.17 µM (inactive) in [7]. Further, the GI50 in [8] is 1.47 µM (inactive); in experiment [9] it was 0.971 µM (active); in experiment [10] it was > 10 µM (inactive); in experiment [11] it was 4.51 µM (inactive); in [12], 1.54 µM (inactive); in experiment [13], > 3.05 µM (inactive). The GI50 in experiment [14] is > 2.13 µM (inactive); in experiment [15], > 2.3 µM (inactive); in [16], 1.46 µM (inactive); in experiment [17] it was > 2.64 µM (inactive); in experiment [18], 1.75 µM (inactive); in experiment [19], > 5.55 µM (inactive).
Turning to `c1cc(-c2ccc(-c3ccc(C4=NC5CCCCC5N4)cc3)o2)ccc1C1=NC2CCCCC2N1` (stereo unspecified), the GI50 was 1.51 µM (inactive) in experiment [1]; 1.61 µM (inactive) in [2]; 5.92 µM (inactive) in experiment [3]; 1.84 µM (inactive) in [4]; 1.6 µM (inactive) in experiment [6]; 1.64 µM (inactive) in experiment [7]. Besides, the GI50 in [8] was 1.56 µM (inactive); in experiment [9], 1.98 µM (inactive); in [10], 1.83 µM (inactive); in experiment [11] it was 2.86 µM (inactive); in [12], 1.86 µM (inactive); in experiment [13], 1.55 µM (inactive). The GI50 was 1.46 µM (inactive) in experiment [14]; 1.58 µM (inactive) in [15]; 1.42 µM (inactive) in [16]; 1.47 µM (inactive) in experiment [17]; 1.67 µM (inactive) in [18]; 1.5 µM (inactive) in experiment [19].
`O=C1/C(=C/c2ccc(Cl)cc2)N=C(c2ccccc2)N1c1nc2ccc(Sc3ccccc3)cc2[nH]1`: the GI50 in experiment [1] was 24.2 µM (inactive); in [2], 22.4 µM (inactive); in experiment [3], 30.1 µM (inactive); in experiment [4], 25.9 µM (inactive); in experiment [5] it was 40.6 µM (inactive); in [6], 35.3 µM (inactive). Further, the GI50 in experiment [7] is 41.4 µM (inactive); in experiment [8], 23.9 µM (inactive); in [9] it was 23.1 µM (inactive); in experiment [10], 23.4 µM (inactive); in experiment [11] it was 19.8 µM (inactive); in experiment [12], 10.2 µM (inactive). In addition, the GI50 in [13] is 36.3 µM (inactive); in experiment [14] it was 20.7 µM (inactive); in experiment [15], 30.1 µM (inactive); in [16], 17.5 µM (inactive); in experiment [17], 29 µM (inactive); in experiment [18], 10.6 µM (inactive). Besides, the GI50 in experiment [19] is 19.7 µM (inactive).
As to `O=[N+]([O-])/C(C(Cl)=C(Cl)Cl)=C(\NCc1ccccc1)Sc1ccccc1`, the GI50 is 32.4 µM (inactive) in experiment [1]; 37.3 µM (inactive) in [3]; 20.6 µM (inactive) in [4]; 36.6 µM (inactive) in experiment [6]; 34 µM (inactive) in experiment [7]; 13.7 µM (inactive) in experiment [8]. The GI50 was 30.8 µM (inactive) in experiment [9]; 17.3 µM (inactive) in experiment [10]; 25.9 µM (inactive) in experiment [11]; 19.4 µM (inactive) in [12]; 24.3 µM (inactive) in experiment [13]; 16.5 µM (inactive) in experiment [14]. The GI50 is 20.5 µM (inactive) in [15]; 63 µM (inactive) in experiment [16]; 35.2 µM (inactive) in [17]; 31.7 µM (inactive) in experiment [18]; 18.7 µM (inactive) in experiment [19].
Consider `CN(N)c1cc(=O)[nH]c(=O)[nH]1`, for which the GI50 is > 100 µM (inactive) in experiment [1]; > 100 µM (inactive) in [2]; 6.22 µM (inactive) in [3]; > 100 µM (inactive) in experiment [4]; > 100 µM (inactive) in [5]; > 100 µM (inactive) in experiment [6]. Moreover, the GI50 in experiment [7], in experiment [8], in [9], in experiment [10], in experiment [20] and in experiment [11] was > 100 µM (inactive) throughout. In addition, the GI50 in experiment [13], in [14], in [15], in [16], in experiment [17] and in experiment [18] was > 100 µM (inactive) each time.
Turning to `C[C@@H]1CC(=O)C[C@@H]2CC[C@H]3[C@@H]4CC[C@H](OC(=O)c5cccc6cc7ccccc7nc56)[C@H]4CC[C@@H]3[C@H]21`, the GI50 in experiment [1] is 14.1 µM (inactive); in experiment [2], 5.6 µM (inactive); in experiment [3], 17.4 µM (inactive); in experiment [4], 27.8 µM (inactive); in experiment [5], 3.89 µM (inactive); in experiment [6] it was 14 µM (inactive). The GI50 in experiment [7] is 25.2 µM (inactive); in [8] it was 15.6 µM (inactive); in experiment [9], 13.7 µM (inactive); in [10], 28.6 µM (inactive); in experiment [12], 15.8 µM (inactive); in experiment [13], 6.4 µM (inactive). Also, the GI50 in experiment [14] was 14.3 µM (inactive); in [15] it was 14.7 µM (inactive); in [16], 8 µM (inactive); in experiment [17] it was 16.6 µM (inactive); in [18], 13.5 µM (inactive); in experiment [19] it was 22.2 µM (inactive).
Take `C[C@H]1[C@H]2[C@H]3CC[C@@H]4[C@@]5(C)CC[C@H](O)C(C)(C)[C@@H]5CC[C@@]4(C)[C@]3(C)C[C@H](O)[C@@]2(C)C[C@H]2O[C@]21C`: the GI50 in experiment [1] is 16.1 µM (inactive); in experiment [2], 22.3 µM (inactive); in experiment [3] it was 25.1 µM (inactive); in experiment [4], 15.6 µM (inactive); in experiment [5], 27.4 µM (inactive); in [6], 15.5 µM (inactive). Also, the GI50 in experiment [7] was 14.7 µM (inactive); in experiment [8] it was 16.4 µM (inactive); in experiment [9] it was 16 µM (inactive); in experiment [10], 15.5 µM (inactive); in [11] it was 21.4 µM (inactive); in [12] it was 18.9 µM (inactive). The GI50 in experiment [13] was 18 µM (inactive); in experiment [14], 19.8 µM (inactive); in experiment [15] it was 18.2 µM (inactive); in [17], 16.9 µM (inactive); in [18] it was 18.9 µM (inactive); in [19], 24 µM (inactive).
Regarding `CCOP(=O)(/C=C/n1ccc(=O)[nH]c1=O)OCC`, the GI50 in experiment [1], in experiment [2], in experiment [3], in [4], in experiment [5] and in experiment [6] was > 100 µM (inactive) in each case. Moreover, the GI50 in experiment [7], in [8], in experiment [9], in experiment [10], in experiment [11] and in [12] was > 100 µM (inactive) in each case. The GI50 in [13], in [14], in experiment [15], in experiment [16], in experiment [17] and in [18] was > 100 µM (inactive) each time. Besides, the GI50 in [19] was > 100 µM (inactive).
As to `CC1(C)CCC2=C(O1)/C(=N\Nc1ccccc1)c1ccccc1C2=O`, the GI50 was 16.9 µM (inactive) in experiment [1]; 29.4 µM (inactive) in experiment [2]; 24 µM (inactive) in experiment [3]; 24.9 µM (inactive) in experiment [4]; 34.6 µM (inactive) in experiment [5]; 29.8 µM (inactive) in [6]. Also, the GI50 in [7] was 24.9 µM (inactive); in experiment [8], 22 µM (inactive); in experiment [9] it was 18.8 µM (inactive); in experiment [10], 59.6 µM (inactive); in experiment [11] it was 20 µM (inactive); in experiment [12], 30.8 µM (inactive). Also, the GI50 in experiment [13] was 48.3 µM (inactive); in [14], 32.8 µM (inactive); in [15], 34.8 µM (inactive); in experiment [16] it was 39.9 µM (inactive); in experiment [17] it was 20.3 µM (inactive); in [18], 16.1 µM (inactive). Also, the GI50 in experiment [19] was 31.8 µM (inactive).
As for `COc1ccc2c(c1O)[C@@]13CCCC=C1[C@@H](C2)[N+](C)(C)CC3`, the GI50 was > 100 µM (inactive) in [1]; 63 µM (inactive) in [2]; > 100 µM (inactive) in experiment [3]; > 100 µM (inactive) in experiment [4]; > 100 µM (inactive) in experiment [5]; > 100 µM (inactive) in experiment [6]. Also, the GI50 in experiment [7], in experiment [8], in [9], in [10], in [12] and in experiment [13] was > 100 µM (inactive) each time. The GI50 in experiment [14] was > 100 µM (inactive); in experiment [15], > 100 µM (inactive); in experiment [16] it was 57.8 µM (inactive); in experiment [17], > 100 µM (inactive); in [18], > 100 µM (inactive); in experiment [19] it was 43.6 µM (inactive).
